Source: article PMC7238409, “Interactions of TiO2 Nanoparticles with Ingredients from Modern Lifestyle Products and Their Effects on Human Skin Cells” (Chemical Research in Toxicology, 2020)
Where two headings read alike, the source gives them in different places.

Tests used:
nNHDF cells [1] = assay: Neutral Red Uptake (NRU) assay, lysosomal integrity; assay type: cell-based, human; conditions: 24 h, absence of TiO2 NPs (control)
nNHDF cells [2] = assay: Annexin V/Propidiumiodide apoptosis/necrosis assay, flow cytometry; assay type: cell-based, human
[3] = Nanoparticle tracking analysis (NTA) of TiO2 NPs after incubation with MLP ingredients; assay type: physicochemical; conditions: 0.1 mg/mL TiO2 NPs + 0.1 mg/mL MLP ingredient, 60 min, diluted 1:100 in water
nNHDF cells [4] = assay: CellTiter-Blue (CTB) assay, metabolic activity; conditions: 24 h
nNHDF cells [5] = assay: Reactive oxygen species assay (DCFDA) with side scatter signal (SSC), flow cytometry; conditions: concentrations of Table 1, with or without 100 μg/mL TiO2 NPs; H2O2 100 μM
nNHDF cells [6] = assay: Glutathione assay (total glutathione and GSSG, Tietze method); assay type: cell-based, human; conditions: 4 h, concentrations of Table 1, absence of TiO2 NPs
Protocol: Intracellular total and oxidized glutathione was determined by the earlier published Tietze method,[33] which was adapted to microtiter plates. Briefly, cells were lysed in 200 μL of 1% (w/v) sulfosalicylic acid (SSA), and 10 μL of the lysates were diluted with 90 μL of H2O and subsequently mixed with 100 μL of a reaction mixture containing 0.3 mM DTNB, 0.4 mM NADPH, 1 mM EDTA, and 1 U/mL glutathione reductase in 0.1 mM sodium phosphate buffer, pH = 7.5. The absorbance at 405 nm was continuously recorded over a time frame of 10 min. Glutathione concentrations were determined by comparing the increase in absorption of samples with the increase in absorption of standards with known concentrations. In order to determine the amount of oxidized glutathione (glutathione disulfide, GSSG), the samples were pretreated with 2-vinylpyridine (2-VP). The sample (cell lysate in SSA, 130 μL) was mixed with 5 μL of 2-VP, and the pH was subsequently adjusted to 6 using 0.2 M Tris-solution. Samples were incubated at room temperature for 60 min, and then 10 μL of the samples were assayed for glutathione, as described above.
Cellular protein contents were determined after lysis of the cells in 200 μL of 0.5 M NaOH according to the Lowry method[34] using bovine serum albumin as a standard.

[7] = read-out: EC50, metabolic activity, control, nNHDF cells, absence of TiO2 NPs (control)

Row | # of particles (TiO2 NPs detectable) [3] | particle diameter of TiO2 NPs, D50 [3] | particle diameter of TiO2 NPs, mean [3] | particle diameter of TiO2 NPs, mode [3] | Compound | EC50 (nNHDF cells [1]) | quadrant number lower left (viable cells), PI / Annexin V plot (nNHDF cells [2]) | quadrant number lower right, PI / Annexin V plot (nNHDF cells [2]) | quadrant number upper left, PI / Annexin V plot (nNHDF cells [2]) | quadrant number upper right, PI / Annexin V plot (nNHDF cells [2]) | DCFDA signal (ROS) (nNHDF cells [5]) | other results
1 | 552 ± 248 × 10^6 | 127 ± 6 nm | 136 ± 5 nm | 117 ± 11 nm | CC(C=O)Cc1ccc(C(C)(C)C)cc1 (stereo not shown) [Lilial, 3-(4-tert-butylphenyl)-2-methylpropanal] | – | – | – | – | – | – | EC50 (nNHDF cells [1]; Homo sapiens): 270 ± 70 µM; quadrant number lower left (viable cells), PI / Annexin V plot (nNHDF cells [2]; human, 24 h): 94.2; quadrant number lower right, PI / Annexin V plot (nNHDF cells [2]; human, 24 h): 1.60; quadrant number upper left, PI / Annexin V plot (nNHDF cells [2]; human, 24 h): 3.26; quadrant number upper right, PI / Annexin V plot (nNHDF cells [2]; human, 24 h): 0.94; EC50 (nNHDF cells [4]; Homo sapiens, read-out: EC50, metabolic activity, control): 230 ± 50 µM
2 | 748 ± 137 × 10^6 | 122 ± 12 nm | 136 ± 18 nm | 111 ± 19 nm | CCCCOC(=O)c1ccc(O)cc1 [BP, butyl parabene] | 690 ± 420 µM | 92.9 | 3.13 | 2.57 | 1.38 | – | amount of viable cells (nNHDF cells [2]): 79.8%
3 | 927 ± 146 × 10^6 | 122 ± 1 nm | 131 ± 2 nm | 106 ± 5 nm | COC(=O)c1ccc(O)cc1 [MP, methyl parabene] | – | – | 6.31 | 2.69 | 1.42 | – | –

More lines, now with the values behind:

Row | Compound | # of particles (TiO2 NPs detectable) [3] | particle diameter of TiO2 NPs, D50 [3] | particle diameter of TiO2 NPs, mean [3] | particle diameter of TiO2 NPs, mode [3] | EC50 (nNHDF cells [1]) | quadrant number lower left (viable cells), PI / Annexin V plot (nNHDF cells [2]) | quadrant number lower right, PI / Annexin V plot (nNHDF cells [2]) | quadrant number upper left, PI / Annexin V plot (nNHDF cells [2]) | quadrant number upper right, PI / Annexin V plot (nNHDF cells [2]) | DCFDA signal (ROS) (nNHDF cells [5]) | other results
4 | CCOC(=O)c1ccc(O)cc1 [EP, ethyl parabene] | 764 ± 92 × 10^6 | 122 ± 2 nm | 132 ± 5 nm | 105 ± 8 nm | 3540 ± 860 µM | 90.0 | 6.57 | 1.97 | 1.47 | – | –
5 | Nc1ccc(N)cc1 [PPD, para-phenylenediamine] | 1833 ± 93 × 10^6 | 129 ± 17 nm | 138 ± 19 nm | 122 ± 14 nm | 1360 ± 50 µM | – | – | – | – | decreased the amount of detectable ROS significantly | PI fluorescence (necrosis) compared to the control (nNHDF cells [2]; 24 h, concentrations of Table 1, together with 100 μg/mL TiO2 NPs): significant difference in PI fluorescence; EC50 (nNHDF cells [4]; read-out: EC50 (cytotoxicity, end point not given), nNHDF cells, discussion): ~1000 µM; EC50 (nNHDF cells [4]; [7]): 1190 ± 170 µM
6 | CCCOC(=O)c1ccc(O)cc1 [PP, propyl parabene] | 612 ± 210 × 10^6 | 119 ± 2 nm | 126 ± 1 nm | 103 ± 5 nm | 1270 ± 340 µM | 91.2 | 4.55 | 2.46 | 1.77 | – | total cellular glutathione content (nNHDF cells [6]): significantly lower total cellular glutathione content; EC50 (nNHDF cells [4]; [7]): 1040 ± 20 µM
7 | O=C1C=C(O)C(=O)c2ccccc21 [HNQ, 2-hydroxy-1,4-naphtoquinone] | 498 ± 380 × 10^6 | 141 ± 20 nm | 154 ± 14 nm | 117 ± 18 nm | – | 89.5 | 4.56 | 3.31 | 2.61 | decreased the amount of detectable ROS significantly | –
8 | OO [H2O2, Hydrogen peroxide, reference compound] | – | – | – | – | – | – | – | – | – | slight but significant increase in the DCFDA signal | total cellular glutathione content (nNHDF cells [6]): lowered significantly
